Assay results from patent US8653263B2 (Janssen Pharmaceutica, priority 2009, dated 2014).

What follows are molecules tested against human orexin-2 receptor (Homo sapiens (Human), UniProt O43614) (assay: Human orexin 2 receptor radioligand binding ([3H]-EMPA competition)). Details: HEK293 cells stably expressing human orexin-2 receptor; [3H]-EMPA 5 nM final; apparent Ki=IC50/(1+C/Kd), Kd=2 nM; read-out: OR 2 Ki.
human orexin-2 receptor, sequence (O43614 whole entry): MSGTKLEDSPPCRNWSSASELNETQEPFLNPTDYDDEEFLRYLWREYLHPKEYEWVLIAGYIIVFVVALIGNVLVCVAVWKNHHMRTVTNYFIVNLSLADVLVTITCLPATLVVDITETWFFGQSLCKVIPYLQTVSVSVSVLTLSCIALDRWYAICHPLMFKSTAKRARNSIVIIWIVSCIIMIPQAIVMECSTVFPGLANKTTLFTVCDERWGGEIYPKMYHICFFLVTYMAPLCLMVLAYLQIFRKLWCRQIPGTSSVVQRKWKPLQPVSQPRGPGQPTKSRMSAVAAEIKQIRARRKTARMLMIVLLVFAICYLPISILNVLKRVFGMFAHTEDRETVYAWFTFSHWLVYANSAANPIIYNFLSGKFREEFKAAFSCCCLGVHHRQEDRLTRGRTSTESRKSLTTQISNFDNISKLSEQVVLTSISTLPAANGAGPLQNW

SMILES | Ki
COc1ccc(C(C)(C)C)cc1C(=O)N1CC2CN(c3nc(C)cc(C)n3)CC2C1 (centres unmarked) [Example 330, (5-tert-Butyl-2-methoxy-phenyl)-[5-(4,6-dimethyl-pyrimidin-2-yl)-hexahydro-pyrrolo[3,4-c]pyrrol-2-yl]-methanone] | 10000 nM
Cc1cc(C)nc(N2CC3CN(C(=O)c4cccc5c4OCCCO5)CC3C2)n1 (centres unmarked) [Example 334, (3,4-Dihydro-2H-benzo[b][1,4]dioxepin-6-yl)-[5-(4,6-dimethyl-pyrimidin-2-yl)-hexahydro-pyrrolo[3,4-c]pyrrol-2-yl]-methanone] | 277 nM
Cc1cc(C)nc(N2CC3CN(C(=O)c4ccc(C)nc4-n4ccnn4)CC3C2)n1 (centres unmarked) [Example 336, [5-(4,6-Dimethyl-pyrimidin-2-yl)-hexahydro-pyrrolo[3,4-c]pyrrol-2-yl]-(6-methyl-2-[1,2,3]triazol-1-yl-pyridin-3-yl)-methanone] | 288 nM
Cc1cc(C)nc(N2CC3CN(C(=O)c4ccc5ccccc5c4Br)CC3C2)n1 (centres unmarked) [Example 337, (1-Bromo-naphthalen-2-yl)-[5-(4,6-dimethyl-pyrimidin-2-yl)-hexahydro-pyrrolo[3,4-c]pyrrol-2-yl]-methanone] | 513 nM
COc1cc2ccccc2cc1C(=O)N1CC2CN(c3nc(C)cc(C)n3)CC2C1 (centres unmarked) [Example 338, [5-(4,6-Dimethyl-pyrimidin-2-yl)-hexahydro-pyrrolo[3,4-c]pyrrol-2-yl]-(3-methoxy-naphthalen-2-yl)-methanone] | 1600 nM
COc1c(C(=O)N2CC3CN(c4nc(C)cc(C)n4)CC3C2)ccc2ccccc12 (centres unmarked) [Example 340, [5-(4,6-Dimethyl-pyrimidin-2-yl)-hexahydro-pyrrolo[3,4-c]pyrrol-2-yl]-(1-methoxy-naphthalen-2-yl)-methanone] | 1520 nM
CCCOc1cccnc1C(=O)N1CC2CN(c3nc(C)cc(C)n3)CC2C1 (centres unmarked) [Example 344, (5-(4,6-dimethylpyrimidin-2-yl)hexahydropyrrolo[3,4-c]pyrrol-2(1H)-yl)(3-propoxypyridin-2-yl)methanone] | 1500 nM
CCCOc1cccnc1C(=O)N1CC2CN(c3cnc4ccccc4n3)CC2C1 (centres unmarked) [Example 347, (3-Propoxypyridin-2-yl)(5-(quinoxalin-2-yl)hexahydropyrrolo[3,4-c]pyrrol-2(1H)-yl)methanone] | 3100 nM
COc1cccc(OC)c1C(=O)N1CC2CN(c3ccc(C(F)(F)F)cn3)CC2C1 (centres unmarked) [Example 349, 2-[(2,6-Dimethoxyphenyl)carbonyl]-5-[5-(trifluoromethyl)pyridin-2-yl]octahydropyrrolo[3,4-c]pyrrole] | 10000 nM
COc1cccc(OC)c1C(=O)N1CC2CN(c3nc(C)cc(C)n3)CC2C1 (centres unmarked) [Example 351, (2,6-Dimethoxyphenyl)(5-(4,6-dimethylpyrimidin-2-yl)hexahydropyrrolo[3,4-c]pyrrol-2(1H)-yl)methanone] | 1200 nM
Cc1cc(C)nc(N2CC3CN(C(=O)c4occc4C)CC3C2)n1 (centres unmarked) [Example 352, (5-(4,6-Dimethylpyrimidin-2-yl)hexahydropyrrolo[3,4-c]pyrrol-2(1H)-yl)(3-methylfuran-2-yl)methanone] | 10000 nM
Cc1ccoc1C(=O)N1CC2CN(c3ccc(C(F)(F)F)cn3)CC2C1 (centres unmarked) [Example 353, 2-[(3-Methylfuran-2-yl)carbonyl]-5-[5-(trifluoromethyl)pyridin-2-yl]octahydropyrrolo[3,4-c]pyrrole] | 10000 nM
Cc1ccoc1C(=O)N1CC2CN(c3cnc4ccccc4n3)CC2C1 (centres unmarked) [Example 355, (3-Methylfuran-2-yl)(5-(quinoxalin-2-yl)hexahydropyrrolo[3,4-c]pyrrol-2(1H)-yl)methanone] | 10000 nM
Cc1cc(C)nc(N2CC3CN(S(=O)(=O)c4ccccc4-c4ccccc4)CC3C2)n1 (centres unmarked) [Example 358, 2-([1,1′-Biphenyl]-2-ylsulfonyl)-5-(4,6-dimethylpyrimidin-2-yl)octahydropyrrolo[3,4-c]pyrrole] | 230 nM
COc1ccccc1S(=O)(=O)N1CC2CN(c3nc(C)cc(C)n3)CC2C1 (centres unmarked) [Example 359, 2-(4,6-Dimethylpyrimidin-2-yl)-5-((2-methoxyphenyl)sulfonyl)octahydropyrrolo[3,4-c]pyrrole] | 180 nM
COc1ccccc1S(=O)(=O)N1CC2CN(c3ccc(C(F)(F)F)cn3)CC2C1 (centres unmarked) [Example 361, 2-((2-Methoxyphenyl)sulfonyl)-5-(5-(trifluoromethyl)pyridin-2-yl)octahydropyrrolo[3,4-c]pyrrole] | 4400 nM
COc1ccccc1S(=O)(=O)N1CC2CN(c3cnc4ccccc4n3)CC2C1 (centres unmarked) [Example 362, 2-(5-((2-Methoxyphenyl)sulfonyl)hexahydropyrrolo[3,4-c]pyrrol-2(1H)-yl)quinoxaline] | 1800 nM
Cc1cc(C)nc(N2CC3CN(C(=O)c4cccc(F)c4-c4ncccc4C)CC3C2)n1 (centres unmarked) [Example 371, (5-(4,6-Dimethylpyrimidin-2-yl)hexahydropyrrolo[3,4-c]pyrrol-2(1H)-yl)(3-fluoro-2-(3-methylpyridin-2-yl)phenyl)methanone] | 3400 nM

Next, values leading:

Ki | SMILES
112 nM | Cc1cc(C)nc(N2CC3CN(C(=O)c4cccc5cccc(-n6nccn6)c45)CC3C2)n1 (centres unmarked) [Example 328, [5-(4,6-Dimethyl-pyrimidin-2-yl)-hexahydro-pyrrolo[3,4-c]pyrrol-2-yl]-(8-[1,2,3]triazol-2-yl-naphthalen-1-yl)-methanone]
109 nM | Cc1cc(C)nc(N2CC3CN(C(=O)c4cccc(F)c4-c4ncccc4Cl)CC3C2)n1 (centres unmarked) [Example 372, (2-(3-Chloropyridin-2-yl)-3-fluorophenyl)(5-(4,6-dimethylpyrimidin-2-yl)hexahydropyrrolo[3,4-c]pyrrol-2(1H)-yl)methanone]
84 nM | Cc1cccc(-c2c(F)cccc2C(=O)N2CC3CN(c4nc(C)cc(C)n4)CC3C2)n1 (centres unmarked) [Example 370, (5-(4,6-Dimethylpyrimidin-2-yl)hexahydropyrrolo[3,4-c]pyrrol-2(1H)-yl)(3-fluoro-2-(6-methylpyridin-2-yl)phenyl)methanone]
59 nM | Cc1cccc(-c2cc(F)ccc2C(=O)N2CC3CN(c4nc(C)cc(C)n4)CC3C2)n1 (centres unmarked) [Example 335, (5-(4,6-dimethylpyrimidin-2-yl)hexahydropyrrolo[3,4-c]pyrrol-2(1H)-yl)(4-fluoro-2-(6-methylpyridin-2-yl)phenyl)methanone]
42 nM | Cc1ccnc(-c2c(F)cccc2C(=O)N2CC3CN(c4nc(C)cc(C)n4)CC3C2)c1 (centres unmarked) [Example 373, (5-(4,6-Dimethylpyrimidin-2-yl)hexahydropyrrolo[3,4-c]pyrrol-2(1H)-yl)(3-fluoro-2-(4-methylpyridin-2-yl)phenyl)methanone]
36 nM | Cc1ccnc(-c2cc(F)ccc2C(=O)N2CC3CN(c4nc(C)cc(C)n4)CC3C2)c1 (centres unmarked) [Example 343, (5-(4,6-Dimethylpyrimidin-2-yl)hexahydropyrrolo[3,4-c]pyrrol-2(1H)-yl)(4-fluoro-2-(4-methylpyridin-2-yl)phenyl)methanone]
25 nM | Cc1cc(C)nc(N2CC3CN(C(=O)c4ccc(F)cc4-c4ncccc4F)CC3C2)n1 (centres unmarked) [Example 346, (5-(4,6-Dimethylpyrimidin-2-yl)hexahydropyrrolo[3,4-c]pyrrol-2(1H)-yl)(4-fluoro-2-(3-fluoropyridin-2-yl)phenyl)methanone]
23 nM | Cc1cc(C)nc(N2CC3CN(C(=O)c4ccc(F)cc4-c4ccccn4)CC3C2)n1 (centres unmarked) [Example 366, (5-(4,6-Dimethylpyrimidin-2-yl)hexahydropyrrolo[3,4-c]pyrrol-2(1H)-yl)(4-fluoro-2-(pyridin-2-yl)phenyl)methanone]
21 nM | Cc1cc(C)nc(N2CC3CN(C(=O)c4cccc(F)c4-c4ncccc4F)CC3C2)n1 (centres unmarked) [Example 375, (5-(4,6-Dimethylpyrimidin-2-yl)hexahydropyrrolo[3,4-c]pyrrol-2(1H)-yl)(3-fluoro-2-(3-fluoropyridin-2-yl)phenyl)methanone]
19 nM | Cc1cc(C)nc(N2CC3CN(C(=O)c4ccc(F)cc4-c4ncco4)CC3C2)n1 (centres unmarked) [Example 369, (5-(4,6-Dimethylpyrimidin-2-yl)hexahydropyrrolo[3,4-c]pyrrol-2(1H)-yl)(4-fluoro-2-(oxazol-2-yl)phenyl)methanone]
17 nM | Cc1cc(C)nc(N2CC3CN(C(=O)c4cccc(F)c4-c4ncco4)CC3C2)n1 (centres unmarked) [Example 376, (5-(4,6-Dimethylpyrimidin-2-yl)hexahydropyrrolo[3,4-c]pyrrol-2(1H)-yl)(3-fluoro-2-(oxazol-2-yl)phenyl)methanone]
17 nM | COc1ccc(C(=O)N2CC3CN(c4ncc(F)c(C)n4)CC3C2)c(-n2nccn2)c1 (centres unmarked) [Example 377, 2-(5-Fluoro-4-methylpyrimidin-2-yl)-5-{[4-methoxy-2-(2H-1,2,3-triazol-2-yl)phenyl]carbonyl}octahydropyrrolo[3,4-c]pyrrole]
15 nM | Cc1cc(C)nc(N2CC3CN(C(=O)c4cccc(F)c4-c4ccccn4)CC3C2)n1 (centres unmarked) [Example 367, (5-(4,6-Dimethylpyrimidin-2-yl)hexahydropyrrolo[3,4-c]pyrrol-2(1H)-yl)(3-fluoro-2-(pyridin-2-yl)phenyl)methanone]
15 nM | COc1ccc(C(=O)N2CC3CN(c4ncc(C)c(C)n4)CC3C2)c(-n2nccn2)c1 (centres unmarked) [Example 380, 2-(4,5-Dimethylpyrimidin-2-yl)-5-{[4-methoxy-2-(2H-1,2,3-triazol-2-yl)phenyl]carbonyl}octahydropyrrolo[3,4-c]pyrrole]
10 nM | COc1ccc(C(=O)N2CC3CN(c4ncc(Cl)c(C)n4)CC3C2)c(-n2nccn2)c1 (centres unmarked) [Example 378, 2-(5-Chloro-4-methylpyrimidin-2-yl)-5-{[4-methoxy-2-(2H-1,2,3-triazol-2-yl)phenyl]carbonyl}octahydropyrrolo[3,4-c]pyrrole]
9 nM | COc1ccc(C(=O)N2CC3CN(c4nc(C)c(F)c(C)n4)CC3C2)c(-n2nccn2)c1 (centres unmarked) [Example 379, 2-(5-Fluoro-4,6-dimethylpyrimidin-2-yl)-5-{[4-methoxy-2-(2H-1,2,3-triazol-2-yl)phenyl]carbonyl}octahydropyrrolo[3,4-c]pyrrole]

Same assay, conditions: read-out: OR 2 Ki

SMILES | Ki
Cc1ccc(-c2c(F)cccc2C(=O)N2CC3CN(c4nc(C)cc(C)n4)CC3C2)nc1 (centres unmarked) [Example 374, (5-(4,6-Dimethylpyrimidin-2-yl)hexahydropyrrolo[3,4-c]pyrrol-2(1H)-yl)(3-fluoro-2-(5-methylpyridin-2-yl)phenyl)methanone] | 73 nM
